Patent publication US20230250108A1, “TETRAHYDROISOQUINOLINE COMPOUNDS AND USE THEREOF” (JIANGSU SIMCERE PHARMACEUTICAL CO., LTD., priority 2020, published 2023)

Assays:
[1] = Hepatocellular metabolic stability test, mouse hepatocytes
Excerpt: Experimental materials: Human hepatocytes were purchased from Biopredic; mouse hepatocytes were purchased from BioIVT; acetonitrile and methanol were purchased from Merck & Co., Inc.; AOPI dyes were purchased from Nexcelom; dexamethasone was purchased from NIFDC; DMSO was purchased from Beijing Solarbio Science & Technology Co., Ltd.; DPBS (10×), GlutaMAX™-1 (100×) and recombinant human insulin were purchased form Gibco by Life Technologies; fetal bovine serum was purchased from Corning; formic acid was purchased from DIKMAPURE; Isotonic Percoll was purchased from GE Healthcare; alprazolam was purchased from Supelco; caffeine was purchased from ChromaDex.inc; and HEPES, tolbutamide and Williams' Medium E were purchased from Sigma.
The powder of a test substance was formulated with DMSO into a stock solution with a high concentration, which was diluted to a working solution of 100 μM with acetonitrile prior to use. The final concentration of the test substance was 1 μM.
49.5 mL of Williams'E Medium and 0.5 mL of GlutaMAX were mixed as an incubation media. Hepatocyte thawing media and incubation media were placed in a 37° C. water-bath and pre-heated for at least 15 minutes prior to use. A tube of hepatocytes stored at an ultra-low temperature was taken and the hepatocytes were ensured to be at a frozen state at a low temperature prior to thawing. The hepatocytes were rapidly placed in a 37° C. water-bath and gently shaken until all the ice crystals were dispersed, and then after 70% ethanol was sprayed, the hepatocytes were transferred to a biosafety cabinet. The content of the tube was poured into a centrifugal tube containing 50 mL of thawing media and centrifuged at 100 g for 10 minutes. After centrifugation, the thawing media was aspirated, and a sufficient amount of incubation media was added to obtain a cell suspension with a cell density of about 1.5×10^6 cells/mL. The hepatocytes were counted, and the viable cell density was determined using Cellometer Vision, and the survival rate of the hepatocytes must be higher than 75%. The hepatocyte suspension was diluted by using the incubation media to a viable cell density of 0.5×10^6 viable cells/mL.
247.5 μL of viable cell (human hepatocytes or mouse hepatocytes) suspension or media were transferred into a 96-well deep-well plate, and the deep-well plate was placed in a vortex incubator and pre-heated for 10 minutes. Incubation of all the samples was performed in parallel duplicate. Test substance (2.5 μL, 100 μM) was added into each well to start the reaction and the deep-well plate was placed in the vortex incubator again. The samples were incubated, and 25 μL of the suspension was taken at 0, 15, 30, 60, 90 and 120 minutes, respectively. 125 μL of acetonitrile containing internal standard (100 nM alprazolam, 200 nM caffeine, and 100 nM tolbutamide) was added to terminate the reaction. The mixture was vortexed for 10 minutes and centrifuged at 3220 g, 4° C. for 30 minutes. After centrifugation, 100 μL of the supernatant was transferred into the loading plate and 150 μL of pure water was added and mixed uniformly for LC-MS/MS analysis.
All the data calculation was performed by the Microsoft Excel software. The peak area was detected by extracting the ion chromatogram. The in vitro half-life (t1/2) of the parent drug was detected by performing linear fitting of the natural logarithm of elimination percent of the parent drug and time.
The in vitro half-life (t1/2) was calculated by means of the slope:

[2] = Pharmacokinetic experiment in mice; format: in vivo, CB17-SCID mice
Excerpt: Experimental materials: GB17-SCID mice were purchased from Beijing Vital River Laboratory Animal Technology Co., Ltd.; DMSO, HP-β-CD (Hydroxypropyl-β-cyclodextrin), MC (methyl cellulose) and acetonitrile were purchased from Merck & Co., Inc. (USA), and K2EDTA anticoagulation tubes were purchased from Jiangsu Xinkang Medical Instrument Co., Ltd.
Experiment method: Six female CB17-SCID mice (20-30 g, 4-6 weeks) were randomized into 2 groups, 3 mice/group. Group 1 was given compound 002 via tail vein injection at a dose of 2 mg/kg, and the vehicle was 5% of DMSO+95% of 10% HP-β-CD aqueous solution; and group 2 was given compound 002 orally at a dose of 10 mg/kg, and the vehicle was 0.5% MC aqueous solution. Prior to the experiment, the animals were given food and water as usual. At pre-dose and 0.083 (only for the vein injection group), 0.25, 0.5, 1, 2, 4, 6, 8 and 24 h post-dose, blood was sampled from the mice in each group from the vein. The whole blood sample collected was placed in a K2EDTA anticoagulation tube and centrifuged for 5 min (4000 rpm, 4° C.) and then the plasma was taken for detection.
10 μL of the mouse plasma sample was taken and 150 μL of acetonitrile solvent (wherein internal standard compound was contained) was added to precipitate proteins. After the mixture was vortexed for 0.5 min, centrifugation (4700 rpm, 4° C.) was performed for 15 min. The supernatant was diluted 2-fold with water containing 0.05% (v/v) formic acid and 3 μL was injected into the LC-MS/MS system (AB Sciex Triple Quad 6500+) for the quantitative detection. The concentrations of the samples were determined with the present of plasma standard curve (linear range: 0.5-1000 ng/mL) of CB17-SCID mice and quality control samples. For the preparation of 10-fold diluted samples, 2 μL of mouse plasma sample was taken and 18 μL of blank plasma was added. After the mixture was vortexed for 0.5 min, 300 μL of acetonitrile solvent (wherein internal standard compound was contained) was added to precipitate proteins. The other processing steps were identical to those for the samples not diluted.

[3] = tested on: Z-138 subcutaneous tumor models; experiment: In vivo drug efficacy experiment in mice, Z-138 subcutaneous tumor model
Excerpt: Experimental materials: Z138 cells were purchased from ATCC; IMDM culture solution, penicillin-streptomycin and 0.25% trypsin-EDTA were purchased from Gibco; horse serum and PBS were purchased from Hyclone; and Matrigel was purchased from Corning.
Animal information: CB17-SCID mice (female, 6-7 weeks, body weight: about 14-20 g) were purchased from Shanghai Lingchang Biotechnology Co., Ltd. The mice were fed in SPF environment and each cage position was individually ventilated. All animals had free access to standard certified commercial laboratory food and water.
Cell culture: Human mantle cell lymphoma Z-138 cell lines were cultured in vitro and the culture conditions involve: IMDM (cell culture solution) supplemented with 10% horse serum and 1% penicillin-streptomycin solution, 37° C., 5% CO2 incubator. Conventional digestion treatment with 0.25% trypsin-EDTA digestion solution was carried out twice a week for passage. When the cell saturation was 85%-90%, and the number reached the requirement, the cells were collected and counted.
Cell inoculation: 0.1 ml/(containing 1×10^7) Z-138 cell suspension (PBS Matrigel=1:1) was inoculated subcutaneously on the right back of each mouse. At day 18 post inoculation, when the average tumor volume measured has reached about 125 mm^3, grouping and administration were performed by using the randomized stratification and grouping method based on the tumor volume and animal body weight. PBS was a phosphate buffer free of Ca and Mg ions, and Matrigel was a matrix gel.
Administration: Compound 002 was administered at the doses of 1.5 mg/kg, 5 mg/kg, or 15 mg/kg, PO, twice daily (BID)×3 weeks. 6 mice per group.
The diameter of the tumor was measured with vernier calipers twice a week. The calculation formula of tumor volume was V=0.5a×b2, wherein a and b represented the long and short diameters of the tumor, respectively. The body weights of the mice were weighed twice a week.
The tumor-inhibiting efficacy of the compound was evaluated using tumor growth inhibition (TGI) (%).
TGI (%)=[(1−(average tumor volume at the end of administration in a certain treatment group−average tumor volume at the beginning of administration in the treatment group)/(average tumor volume at the end of administration in the solvent control group−average tumor volume at the beginning of administration in the solvent control group)]×100%.

[4] = female, CB17-SCID, mouse, plasma, 10 mg/kg, Mice PO (10 mpk)
[5] = tested doses 1.5, 5, 15 mg/kg BID

CCN1CCN(C[C@@H](O)[C@@H]2Cc3ccccc3CN2)C(=O)c2ccc(C(=O)N3CCC4(CC3)CC(OC)C4)cc21.Cl [Compound 002, 1-ethyl-4-((R)-2-hydroxy-2-((S)-1,2,3,4-tetrahydroisoquinolin-3-yl)ethyl)-8-(2-methoxy-7-azaspiro[3.5]nonane-7-carbonyl)-1,2,3,4-tetrahydro-5H-benzo[e][1,4]diazepin-5-one hydrochloride]
half-life at 1 μM [1]: 1.58 h
Cl_obs ([2]; Mice IV (2 mpk)): 61.1 ± 6.2 mL/min/kg
F ([2]; Mice PO (10 mpk)): 96.5 ± 20.5%
half-life ([2]; female, CB17-SCID, mouse, plasma, 2 mg/kg, Mice IV (2 mpk)): 3.56 ± 0.55 h
Vd ([2]; female, CB17-SCID, mouse, plasma, 2 mg/kg, Mice IV (2 mpk), read-out: Vss—obs): 8.2 ± 0.6 L/kg
AUC(0-t) [2, 4]: 2650 ± 563 ng·h/mL
Cmax [2, 4]: 827 ± 79 ng/mL
Tmax [2, 4]: 0.33 ± 0.14 h
half-life [2, 4]: 2.68 ± 0.2 h
TGI ([3]; 1.5 mg/kg PO BID x 3 weeks): 36.0%
Average tumor volume ([3]; 1.5 mg/kg PO BID, 0 Day): 125 mm^3
Average tumor volume ([3]; 1.5 mg/kg PO BID, 4 Day): 151 mm^3
Average tumor volume ([3]; 1.5 mg/kg PO BID, 7 Day): 203 mm^3
Average tumor volume ([3]; 1.5 mg/kg PO BID, 11 Day): 374 mm^3
Average tumor volume ([3]; 1.5 mg/kg PO BID, 14 Day): 436 mm^3
Average tumor volume ([3]; 1.5 mg/kg PO BID, 18 Day): 567 mm^3
Average tumor volume ([3]; 1.5 mg/kg PO BID, 21 Day): 689 mm^3
TGI ([3]; 5 mg/kg PO BID x 3 weeks): 47.8%
Average tumor volume ([3]; 5 mg/kg PO BID, 0 Day): 124 mm^3
Average tumor volume ([3]; 5 mg/kg PO BID, 4 Day): 157 mm^3
Average tumor volume ([3]; 5 mg/kg PO BID, 7 Day): 197 mm^3
Average tumor volume ([3]; 5 mg/kg PO BID, 11 Day): 281 mm^3
Average tumor volume ([3]; 5 mg/kg PO BID, 14 Day): 310 mm^3
Average tumor volume ([3]; 5 mg/kg PO BID, 18 Day): 452 mm^3
Average tumor volume ([3]; 5 mg/kg PO BID, 21 Day): 585 mm^3
TGI ([3]; 15 mg/kg PO BID x 3 weeks): 112.5%
Average tumor volume ([3]; 15 mg/kg PO BID, 0 Day): 126 mm^3
Average tumor volume ([3]; 15 mg/kg PO BID, 4 Day): 140 mm^3
Average tumor volume ([3]; 15 mg/kg PO BID, 7 Day): 113 mm^3
Average tumor volume ([3]; 15 mg/kg PO BID, 11 Day): 59 mm^3
Average tumor volume ([3]; 15 mg/kg PO BID, 14 Day): 34 mm^3
Average tumor volume ([3]; 15 mg/kg PO BID, 18 Day): 18 mm^3
Average tumor volume ([3]; 15 mg/kg PO BID, 21 Day): 16 mm^3
Death in mice [3, 5]: nor did they cause any death in mice
Effect on body weights of the mice [3, 5]: do not significantly affect the body weights of the mice
Tolerability [3, 5]: the mice can tolerate the doses
Effect on tumor growth ([3]; twice daily at 1.5 mg/kg, 5 mg/kg and 15 mg/kg): significant inhibitory effects on tumor growth
Effect on tumor size ([3]; twice daily at 15 mg/kg): effect of shrinking tumor
